Drawing on US11306092B2, “Amino indole compounds useful as TLR inhibitors” (BRISTOL-MYERS SQUIBB COMPANY, priority 2017, dated 2022), this text covers IC50 for 17 compounds.

One assay deals with T1, human TLR9 (Homo sapiens, UniProt Q9NR96).
T1 construct: host or cells: HEK-Blue cells
T1 sequence (Q9NR96 26-1032): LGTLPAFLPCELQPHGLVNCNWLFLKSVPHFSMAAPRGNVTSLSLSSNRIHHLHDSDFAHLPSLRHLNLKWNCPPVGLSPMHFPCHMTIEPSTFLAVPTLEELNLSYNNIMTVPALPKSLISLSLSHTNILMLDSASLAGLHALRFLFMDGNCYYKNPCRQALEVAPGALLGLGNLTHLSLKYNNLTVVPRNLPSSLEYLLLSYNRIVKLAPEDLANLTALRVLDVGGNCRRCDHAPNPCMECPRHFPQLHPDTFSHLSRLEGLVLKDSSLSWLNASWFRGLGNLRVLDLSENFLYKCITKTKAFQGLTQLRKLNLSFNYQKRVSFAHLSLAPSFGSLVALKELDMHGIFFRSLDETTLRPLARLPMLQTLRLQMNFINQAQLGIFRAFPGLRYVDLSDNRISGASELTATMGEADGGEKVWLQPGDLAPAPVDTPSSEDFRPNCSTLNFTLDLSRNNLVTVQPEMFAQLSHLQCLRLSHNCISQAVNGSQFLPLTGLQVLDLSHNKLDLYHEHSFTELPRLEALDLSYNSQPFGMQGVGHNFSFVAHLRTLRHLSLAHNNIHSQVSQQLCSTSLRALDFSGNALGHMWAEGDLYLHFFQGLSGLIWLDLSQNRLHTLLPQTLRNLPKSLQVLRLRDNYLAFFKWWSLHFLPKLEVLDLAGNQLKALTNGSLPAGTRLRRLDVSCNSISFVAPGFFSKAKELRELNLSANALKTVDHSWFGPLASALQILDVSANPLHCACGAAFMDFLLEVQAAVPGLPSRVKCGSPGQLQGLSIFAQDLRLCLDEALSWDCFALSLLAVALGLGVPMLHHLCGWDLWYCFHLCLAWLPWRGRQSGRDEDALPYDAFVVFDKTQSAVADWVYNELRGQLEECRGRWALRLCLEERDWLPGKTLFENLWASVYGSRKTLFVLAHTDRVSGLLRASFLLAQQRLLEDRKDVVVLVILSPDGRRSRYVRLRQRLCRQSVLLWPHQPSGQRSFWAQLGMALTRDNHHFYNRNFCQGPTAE
In words: TLR9 inhibition reporter assay (HEK-Blue SEAP reporter). Type of assay: cell-based. The conditions noted are these: HEK-Blue cells overexpressing human TLR9; ODN2006 5 nM; 22 hour incubation. The protocol:
(§1) TLR7/8/9 Inhibition Reporter Assays
(§2) HEK-Blue™-cells (Invivogen) overexpressing human TLR7, TLR8 or TLR9 receptors were used for screening inhibitors of these receptors using an inducible SEAP (secreted embryonic alkaline phosphatase) reporter gene under the control of the IFN-β minimal promoter fused to five NF-κB and AP-1-binding sites. Briefly, cells are seeded into Greiner 384 well plates (15000 cells per well for TLR7, 20,000 for TLR8 and 25,000 for TLR9) and then treated with test compounds in DMSO to yield a final dose response concentration range of 0.05 nM-50 μM. After a 30 minute compound pre-treatment at room temperature, the cells are then stimulated with a TLR7 ligand (gardiquimod at a final concentration of 7.5 μM), TLR8 ligand (R848 at a final concentration of 15.9 μM) or TLR9 ligand (ODN2006 at a final concentration of 5 nM) to activate NF-κB and AP-1 which induce the production of SEAP. After a 22 hour incubation at 37° C., 5% CO2, SEAP levels are determined with the addition of HEK-Blue™ Detection reagent (Invivogen), a cell culture medium that allows for detection of SEAP, according to manufacturer's specifications. The percent inhibition is determined as the % reduction in the HEK-Blue signal present in wells treated with agonist plus DMSO alone compared to wells treated with a known inhibitor.

For a further assay, the target named is T2, human TLR7 (Homo sapiens, UniProt Q9NYK1).
T2 construct: host or cells: HEK-Blue cells
T2 sequence (Q9NYK1 27-1049): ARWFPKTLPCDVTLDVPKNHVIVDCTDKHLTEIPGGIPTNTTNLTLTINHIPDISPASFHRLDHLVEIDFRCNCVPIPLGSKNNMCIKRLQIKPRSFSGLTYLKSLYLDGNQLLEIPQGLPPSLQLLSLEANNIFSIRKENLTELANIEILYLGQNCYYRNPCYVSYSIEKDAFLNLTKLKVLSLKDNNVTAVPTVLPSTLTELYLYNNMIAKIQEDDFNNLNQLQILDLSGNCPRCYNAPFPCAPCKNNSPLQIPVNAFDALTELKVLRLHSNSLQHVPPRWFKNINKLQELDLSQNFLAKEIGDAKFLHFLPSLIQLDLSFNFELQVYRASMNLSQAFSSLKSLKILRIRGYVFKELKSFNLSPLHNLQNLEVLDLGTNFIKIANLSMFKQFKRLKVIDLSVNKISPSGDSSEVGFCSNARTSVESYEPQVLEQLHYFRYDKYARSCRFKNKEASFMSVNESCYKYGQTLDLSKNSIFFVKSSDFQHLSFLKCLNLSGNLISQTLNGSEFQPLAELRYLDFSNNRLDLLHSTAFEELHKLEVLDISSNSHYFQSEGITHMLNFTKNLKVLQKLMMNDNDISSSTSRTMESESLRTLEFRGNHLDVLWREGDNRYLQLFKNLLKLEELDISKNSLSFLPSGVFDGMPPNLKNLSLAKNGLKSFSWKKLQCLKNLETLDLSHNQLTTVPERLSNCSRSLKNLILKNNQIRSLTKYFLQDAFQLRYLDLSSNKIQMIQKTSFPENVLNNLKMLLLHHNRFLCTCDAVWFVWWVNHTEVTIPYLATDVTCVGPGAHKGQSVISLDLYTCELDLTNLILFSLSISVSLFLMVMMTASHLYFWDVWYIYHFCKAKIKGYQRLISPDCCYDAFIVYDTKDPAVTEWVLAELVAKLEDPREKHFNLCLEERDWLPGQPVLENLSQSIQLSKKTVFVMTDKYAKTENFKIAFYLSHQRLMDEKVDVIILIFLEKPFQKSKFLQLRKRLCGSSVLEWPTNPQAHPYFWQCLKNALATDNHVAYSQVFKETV
In words: TLR7 inhibition reporter assay (HEK-Blue SEAP reporter). Particulars: HEK-Blue cells overexpressing human TLR7; gardiquimod 7.5 μM; 22 hour incubation. Type of assay: cell-based. The protocol:
as §1, §2
Background: A reporter such as luciferase makes a cellular process visible.

SMILES strings stand for the structures.

A word on the IC50: it is the concentration that gives 50% inhibition. A higher IC50 goes with weaker potency in that assay. Regarding `COc1ccc(-c2[nH]c3ccc(NC4CCC(N5CCN(CCCN6CCCC6)CC5)CC4)cc3c2C(C)C)cc1OC` (stereo not shown) [Example 67, 2-(3,4-dimethoxyphenyl)-3-isopropyl-N-(4-(4-(3-(pyrrolidin-1-yl)propyl)piperazin-1-yl)cyclohexyl)-1H-indol-5-amine], the IC50 against human TLR9 came out at 589 nM; on human TLR7 it was 322 nM.
In the same order, the values of `CCN1CCN(C2CCC(Nc3ccc4[nH]c(-c5ccc(OC)c(OC)c5)c(C(C)C)c4c3)CC2)CC1` (stereo not shown) [Example 38, 2-(3,4-dimethoxyphenyl)-N-(4-(4-ethylpiperazin-1-yl)cyclohexyl)-3-isopropyl-1H-indol-5-amine] are 716 nM and 450 nM.
The like results for `COc1ccc(-c2[nH]c3ccc(NC4CCC(N5CCN(CC(C)C)CC5)CC4)cc3c2C(C)C)cc1OC` (stereo not shown) [Example 52, 2-(3,4-dimethoxyphenyl)-N-(4-(4-isobutylpiperazin-1-yl)cyclohexyl)-3-isopropyl-1H-indol-5-amine] were, in that order, 1580 nM and 403 nM.
Consider `Cc1c(-c2ccnc3[nH]ccc23)[nH]c2ccc(N3CCC4(CCN(Cc5cccn5C)CC4)CC3)cc12` [Example 189, 3-((1-methyl-1H-pyrrol-2-yl)methyl)-9-(3-methyl-2-(1H-pyrrolo[2,3-b]pyridin-4-yl)-1H-indol-5-yl)-3,9-diazaspiro[5.5]undecane], for which the values for the IC50 on human TLR9 and against human TLR7 were 441 nM and 16100 nM, respectively.
As to `CCc1c(-c2ccc(OC)c(OC)c2)[nH]c2ccc(N3CCN(CCNC)CC3)cc12` [Example 140, 2-(4-(2-(3,4-dimethoxyphenyl)-3-ethyl-1H-indol-5-yl)piperazin-1-yl)-N-methylethan-1-amine], the IC50 on human TLR9 was 3940 nM; on human TLR7, 235 nM.
The like results for `CCc1c(-c2ccc(OC)c(OC)c2)[nH]c2ccc(N3CCC(OC4CCN(C5CC(C)(C)NC(C)(C)C5)CC4)CC3)cc12` [Example 193, 2-(3,4-dimethoxyphenyl)-3-ethyl-5-(4-((2′,2′,6′,6′-tetramethyl-[1,4′-bipiperidin]-4-yl)oxy)piperidin-1-yl)-1H-indole] were, in that order, 546 nM and 81 nM.
The like results for `COCCN1CCN(C2CCC(Nc3ccc4[nH]c(-c5ccc(OC)c(OC)c5)c(C(C)C)c4c3)CC2)CC1` (stereo not shown) [Example 54, 2-(3,4-dimethoxyphenyl)-3-isopropyl-N-(4-(4-(2-methoxyethyl)piperazin-1-yl)cyclohexyl)-1H-indol-5-amine] were, in that order, 970 nM and 269 nM.
As for `COc1ccc(-c2[nH]c3ccc(NC4CCC(N5CCN(Cc6ccc(C)cc6)CC5)CC4)cc3c2C(C)C)cc1OC` (stereo not shown) [Example 65, 2-(3,4-dimethoxyphenyl)-3-isopropyl-N-(4-(4-(4-methylbenzyl)piperazin-1-yl)cyclohexyl)-1H-indol-5-amine], the 50% inhibitory concentration (IC50) against human TLR9 was determined as 588 nM; on human TLR7, 1180 nM.
The like results for `CCN1CCC(N2CCN(c3ccc4[nH]c(-c5ccnc6[nH]ccc56)c(C)c4c3)CC2)CC1` [Example 145, 4-(5-(4-(1-ethylpiperidin-4-yl)piperazin-1-yl)-3-methyl-1H-indol-2-yl)-1H-pyrrolo[2,3-b]pyridine] were, in that order, 197 nM and 2460 nM.
The like results for `COc1ccc(-c2[nH]c3ccc(NC4CCC(NCCN5CCOCC5)CC4)cc3c2C(C)C)cc1OC` (stereo not shown) [Example 48, N1-(2-(3,4-dimethoxyphenyl)-3-isopropyl-1H-indol-5-yl)-N4-(2-morpholinoethyl)cyclohexane-1,4-diamine] were, in that order, 1250 nM and 322 nM.
In the case of `COc1ccc(-c2[nH]c3ccc(NC4CCC(N(C)CCCN(C)C)CC4)cc3c2C(C)C)cc1OC` (stereo not shown) [Example 42, N1-(2-(3,4-dimethoxyphenyl)-3-isopropyl-1H-indol-5-yl)-N4-(3-(dimethylamino)propyl)-N4-methylcyclohexane-1,4-diamine], the IC50 worked out at 1010 nM at human TLR9 and 106 nM against human TLR7.
Consider `COc1ccc(-c2[nH]c3ccc(N4CCC(N5CCCN(C)CC5)CC4)cc3c2C(C)C)cc1OC` [Example 123, 2-(3,4-dimethoxyphenyl)-3-isopropyl-5-(4-(4-methyl-1,4-diazepan-1-yl)piperidin-1-yl)-1H-indole], for which the IC50 against human TLR9 came to 1690 nM; against human TLR7, 281 nM.
The like results for `COc1ccc(-c2[nH]c3ccc(NC4CCC(N5CCN(CC(C)C)CC5)CC4)cc3c2C(C)C)cc1OC` (stereo not shown) [Example 53, 2-(3,4-dimethoxyphenyl)-N-(4-(4-isobutylpiperazin-1-yl)cyclohexyl)-3-isopropyl-1H-indol-5-amine] were, in that order, 1210 nM and 659 nM.
`COc1ccc(-c2[nH]c3ccc(NC4CCC(N5CCN(C(C)=O)CC5)CC4)cc3c2C(C)C)cc1OC` (single isomer, unassigned) [Example 45, 1-(4-(4-((2-(3,4-dimethoxyphenyl)-3-isopropyl-1H-indol-5-yl)amino)cyclohexyl)piperazin-1-yl)ethan-1-one]: the IC50 amounted to 1270 nM against human TLR9 and 349 nM against human TLR7.
Consider `COc1ccc(-c2[nH]c3ccc(NC4CCC(N(C)CCCN(C)C)CC4)cc3c2C(C)C)cc1OC` (stereo not shown) [Example 43, N1-(2-(3,4-dimethoxyphenyl)-3-isopropyl-1H-indol-5-yl)-N4-(3-(dimethylamino)propyl)-N4-methylcyclohexane-1,4-diamine], for which the values for the IC50 against human TLR9 and at human TLR7 were 477 nM and 252 nM, respectively.
In the same order, the values of `COc1ccc(-c2[nH]c3ccc(NC4CCC(N5CCN(C6CCCC6)CC5)CC4)cc3c2C(C)C)cc1OC` (stereo not shown) [Example 57, N-(4-(4-cyclopentylpiperazin-1-yl)cyclohexyl)-2-(3,4-dimethoxyphenyl)-3-isopropyl-1H-indol-5-amine] are 460 nM and 353 nM.
In the same order, the values of `COc1ccc(-c2[nH]c3ccc(N4CCC(N5CCCN(C(C)=O)CC5)CC4)cc3c2C(C)C)cc1OC` [Example 88, 1-(4-(1-(2-(3,4-dimethoxyphenyl)-3-isopropyl-1H-indol-5-yl)piperidin-4-yl)-1,4-diazepan-1-yl)ethan-1-one] are 4640 nM and 69 nM.
